Experimental data reported in article PMC5218480 (PLoS ONE, 2017).

Tested on: MV-4-11 cells
Experiment: Gene expression microarray analysis (Affymetrix PrimeView) and GSEA
Format: cell-based, human
Set-up: RFU PODN (11730768_x_at) / Fold change /veh PODN (11730768_x_at) / RFU LINC00158 (11744669_a_at) / Fold change /veh LINC00158 (11744669_a_at) / RFU DUSP10 (11751237_a_at) / Fold change /veh DUSP10 (11751237_a_at) / RFU ID3 (11757404_x_at) / Fold change /veh ID3 (11757404_x_at) / RFU PLEKHG5 (11737974_s_at) / Fold change /veh PLEKHG5 (11737974_s_at) / RFU LRRC4B (11730491_at) / Fold change /veh LRRC4B (11730491_at) / RFU GIMAP4 (11747438_a_at) / Fold change /veh GIMAP4 (11747438_a_at) / RFU KRT8 (11758183_x_at) / Fold change /veh KRT8 (11758183_x_at) / RFU CNN1 (11734310_a_at) / Fold change /veh CNN1 (11734310_a_at) / RFU VPS37D (11726825_at) / Fold change /veh VPS37D (11726825_at) / RFU C10orf10 (11716522_x_at) / Fold change /veh C10orf10 (11716522_x_at) / RFU KIR2DL2 /// KIR2DL4 /// KIR2DL5A /// KIR2DL5B /// KIR2DS1 /// KIR2DS2 /// KIR2DS3 /// KIR2DS4 /// KIR3DL3 /// KIR3DL3 /// KIR3DS1 (11738374_at) / Fold change /veh KIR2DL2 /// KIR2DL4 /// KIR2DL5A /// KIR2DL5B /// KIR2DS1 /// KIR2DS2 /// KIR2DS3 /// KIR2DS4 /// KIR3DL3 /// KIR3DL3 /// KIR3DS1 (11738374_at) / RFU C1QL1 (11718748_at) / Fold change /veh C1QL1 (11718748_at) / RFU TMPRSS4 (11747572_a_at) / Fold change /veh TMPRSS4 (11747572_a_at) / RFU HAMP (11756126_x_at) / Fold change /veh HAMP (11756126_x_at) / RFU RNFT2 (11725882_a_at) / Fold change /veh RNFT2 (11725882_a_at) / RFU NR4A2 (11747474_a_at) / Fold change /veh NR4A2 (11747474_a_at) / RFU ABCC12 (11746883_a_at) / Fold change /veh ABCC12 (11746883_a_at) / RFU TMEM136 (11760407_x_at) / Fold change /veh TMEM136 (11760407_x_at) / RFU CLDN22 /// WWC2 (11732394_at) / Fold change /veh CLDN22 /// WWC2 (11732394_at) / RFU HLA-DPB1 (11760878_x_at) / Fold change /veh HLA-DPB1 (11760878_x_at) / RFU SPINT1 (11716480_a_at) / Fold change /veh SPINT1 (11716480_a_at) / RFU GAP43 (11754022_s_at) / Fold change /veh GAP43 (11754022_s_at) / RFU A4GNT (11735810_at) / Fold change /veh A4GNT (11735810_at) / RFU PRB3 (11715151_x_at) / Fold change /veh PRB3 (11715151_x_at) / RFU TUBB4B (11761932_at) / Fold change /veh TUBB4B (11761932_at) / RFU CAPN14 (11732068_a_at) / Fold change /veh CAPN14 (11732068_a_at) / RFU TMCC2 (11721928_a_at) / Fold change /veh TMCC2 (11721928_a_at) / RFU IRGQ (11745062_a_at) / Fold change /veh IRGQ (11745062_a_at) / RFU FAM174B (11720279_a_at) / Fold change /veh FAM174B (11720279_a_at) / RFU TMPRSS4 (11748680_a_at) / Fold change /veh TMPRSS4 (11748680_a_at) / RFU FAM212B (11763350_a_at) / Fold change /veh FAM212B (11763350_a_at) / RFU PLEKHG5 (11743358_a_at) / Fold change /veh PLEKHG5 (11743358_a_at) / RFU ZSCAN30 (11745921_a_at) / Fold change /veh ZSCAN30 (11745921_a_at) / RFU CMKLR1 (11741424_a_at) / Fold change /veh CMKLR1 (11741424_a_at) / RFU LOC101060620 /// MAPK8IP1 (11723275_at) / Fold change /veh LOC101060620 /// MAPK8IP1 (11723275_at) / RFU SPTSSB (11747773_x_at) / Fold change /veh SPTSSB (11747773_x_at) / RFU PRSS12 (11739890_at) / Fold change /veh PRSS12 (11739890_at) / RFU BIN1 (11741810_x_at) / Fold change /veh BIN1 (11741810_x_at) / RFU WNT11 (11732464_a_at) / Fold change /veh WNT11 (11732464_a_at) / RFU C10orf10 (11716521_a_at) / Fold change /veh C10orf10 (11716521_a_at) / RFU C5orf56 (11738089_at) / Fold change /veh C5orf56 (11738089_at) / RFU CYB561 (11721691_x_at) / Fold change /veh CYB561 (11721691_x_at) / RFU ANKRD19P (11752326_a_at) / Fold change /veh ANKRD19P (11752326_a_at) / RFU OR2T12 /// OR2T33 /// OR2T8 (11738714_s_at) / Fold change /veh OR2T12 /// OR2T33 /// OR2T8 (11738714_s_at) / RFU VCAN (11748164_a_at) / Fold change /veh VCAN (11748164_a_at) / RFU JSRP1 (11732532_at) / Fold change /veh JSRP1 (11732532_at) / RFU KRTAP10-11 (11738290_x_at) / Fold change /veh KRTAP10-11 (11738290_x_at) / RFU MYO3A (11730013_a_at) / Fold change /veh MYO3A (11730013_a_at) / RFU EBF3 (11725865_a_at) / Fold change /veh EBF3 (11725865_a_at) / RFU CAMK2N1 (11719241_x_at) / Fold change /veh CAMK2N1 (11719241_x_at) / RFU C5orf56 (11738088_a_at) / Fold change /veh C5orf56 (11738088_a_at) / RFU OLFML3 (11715873_a_at) / Fold change /veh OLFML3 (11715873_a_at) / RFU LOC100653217 /// NTM (11731650_a_at) / Fold change /veh LOC100653217 /// NTM (11731650_a_at) / RFU MAPK11 (11762145_a_at) / Fold change /veh MAPK11 (11762145_a_at) / RFU FIZ1 (11724087_x_at) / Fold change /veh FIZ1 (11724087_x_at) / RFU OASL (11726364_x_at) / Fold change /veh OASL (11726364_x_at) / RFU SOX15 (11748057_x_at) / Fold change /veh SOX15 (11748057_x_at) / RFU CD79A (11719716_a_at) / Fold change /veh CD79A (11719716_a_at) / RFU HIST1H1D (11736915_at) / Fold change /veh HIST1H1D (11736915_at) / RFU CASKIN2 (11723855_a_at) / Fold change /veh CASKIN2 (11723855_a_at) / RFU LOC730098 (11760151_x_at) / Fold change /veh LOC730098 (11760151_x_at) / RFU OR4N2 (11742367_at) / Fold change /veh OR4N2 (11742367_at) / RFU PRRT2 (11749266_a_at) / Fold change /veh PRRT2 (11749266_a_at) / RFU SNX32 (11753110_a_at) / Fold change /veh SNX32 (11753110_a_at) / RFU CDHR5 (11726645_a_at) / Fold change /veh CDHR5 (11726645_a_at) / RFU RCAN1 (11760418_a_at) / Fold change /veh RCAN1 (11760418_a_at) / RFU FAM167A (11723789_a_at) / Fold change /veh FAM167A (11723789_a_at) / RFU FAM26E (11764081_at) / Fold change /veh FAM26E (11764081_at) / RFU ISYNA1 (11749810_s_at) / Fold change /veh ISYNA1 (11749810_s_at) / RFU ACY1 (11761880_at) / Fold change /veh ACY1 (11761880_at) / RFU 11764098_at / Fold change /veh 11764098_at / RFU SAMD14 (11745864_x_at) / Fold change /veh SAMD14 (11745864_x_at) / RFU NPB (11741838_a_at) / Fold change /veh NPB (11741838_a_at) / RFU TMPRSS6 (11731388_a_at) / Fold change /veh TMPRSS6 (11731388_a_at) / RFU KRTAP10-2 (11738614_at) / Fold change /veh KRTAP10-2 (11738614_at) / RFU ARHGAP8 /// PRR5-ARHGAP8 (11727945_x_at) / Fold change /veh ARHGAP8 /// PRR5-ARHGAP8 (11727945_x_at) / RFU KRTAP5-7 /// NADSYN1 (11734609_at) / Fold change /veh KRTAP5-7 /// NADSYN1 (11734609_at) / RFU RASL12 (11751679_a_at) / Fold change /veh RASL12 (11751679_a_at) / RFU CDKN2B (11736163_a_at) / Fold change /veh CDKN2B (11736163_a_at) / RFU PRF1 (11729649_at) / Fold change /veh PRF1 (11729649_at) / RFU, ZNF638 /// ZNF638-IT1 / Fold change vs veh, ZNF638 /// ZNF638-IT1 / RFU, PANK3 / Fold change vs veh, PANK3 / RFU, SH3YL1 / Fold change vs veh, SH3YL1 / RFU, ZEB2 / Fold change vs veh, ZEB2 / RFU, NRIP1 / Fold change vs veh, NRIP1 / RFU, PTTG1IP / Fold change vs veh, PTTG1IP / RFU, CAPN2 / Fold change vs veh, CAPN2 / RFU, MED14 / Fold change vs veh, MED14 / RFU, SNORA58 / Fold change vs veh, SNORA58 / RFU, C1orf63 / Fold change vs veh, C1orf63 / RFU, LRRFIP1 / Fold change vs veh, LRRFIP1 / RFU, NDUFAF7 / Fold change vs veh, NDUFAF7 / RFU, SLC12A2 / Fold change vs veh, SLC12A2 / RFU, IBTK / Fold change vs veh, IBTK / RFU, ESF1 / Fold change vs veh, ESF1 / Fold change vs veh, TMEM50B / RFU, TAOK1 / Fold change vs veh, TAOK1 / RFU, ACBD3 / Fold change vs veh, ACBD3 / RFU, TMA16 / Fold change vs veh, TMA16 / RFU, RWDD3 / Fold change vs veh, RWDD3 / RFU, BCAT1 / Fold change vs veh, BCAT1 / RFU, EDEM3 / Fold change vs veh, EDEM3 / RFU, TMEM33 / Fold change vs veh, TMEM33 / RFU, WDR75 / Fold change vs veh, WDR75 / RFU, AHCTF1 / Fold change vs veh, AHCTF1 / RFU, TFRC / Fold change vs veh, TFRC / RFU, ZDHHC17 / Fold change vs veh, ZDHHC17 / RFU, NOM1 / Fold change vs veh, NOM1 / RFU, ARL8B / Fold change vs veh, ARL8B / RFU, ZBTB11 / Fold change vs veh, ZBTB11 / RFU, TAMM41 / Fold change vs veh, TAMM41 / RFU, KIAA1704 /// LOC100996395 / Fold change vs veh, KIAA1704 /// LOC100996395 / RFU, ING1 / Fold change vs veh, ING1 / RFU, TRMT61B / Fold change vs veh, TRMT61B / RFU, FUBP3 / Fold change vs veh, FUBP3 / RFU, TP53 / Fold change vs veh, TP53 / RFU, TNKS2 / Fold change vs veh, TNKS2 / RFU, ZFP14 / Fold change vs veh, ZFP14 / RFU, ACTR2 / Fold change vs veh, ACTR2 / RFU, PPP3R1 / Fold change vs veh, PPP3R1 / RFU, PIK3R1 / Fold change vs veh, PIK3R1 / RFU, HNRNPA1 / Fold change vs veh, HNRNPA1 / RFU, RNF170 / Fold change vs veh, RNF170 / RFU, ZNF28 / Fold change vs veh, ZNF28 / RFU, RNGTT / Fold change vs veh, RNGTT / RFU, OGT / Fold change vs veh, OGT / RFU, BRD1 / Fold change vs veh, BRD1 / RFU, MARS / Fold change vs veh, MARS / RFU, ZNF655 / Fold change vs veh, ZNF655 / RFU, FAHD1 / Fold change vs veh, FAHD1 / RFU, BDP1 / Fold change vs veh, BDP1 / RFU, LRRCC1 / Fold change vs veh, LRRCC1 / RFU, ARID1A / Fold change vs veh, ARID1A / RFU, ZNF146 / Fold change vs veh, ZNF146 / RFU, ZNF330 / Fold change vs veh, ZNF330 / RFU, GPN3 / Fold change vs veh, GPN3 / RFU, C9orf123 / Fold change vs veh, C9orf123 / RFU, N4BP2L2 / Fold change vs veh, N4BP2L2 / RFU, ARFIP1 / Fold change vs veh, ARFIP1 / RFU, FAM179B / Fold change vs veh, FAM179B / RFU, BCL10 / Fold change vs veh, BCL10 / RFU, UHRF1BP1L / Fold change vs veh, UHRF1BP1L / RFU, BET1 / Fold change vs veh, BET1 / RFU, CNOT2 / Fold change vs veh, CNOT2 / RFU, ZNF268 / Fold change vs veh, ZNF268 / Fold change vs veh, ZNF507 / RFU, DGCR2 / Fold change vs veh, DGCR2 / RFU, WDSUB1 / Fold change vs veh, WDSUB1 / Fold change vs veh, HSP90B1 /// MIR3652 / RFU, ADSS / Fold change vs veh, ADSS / RFU, GK / Fold change vs veh, GK / RFU, ZNF148 / Fold change vs veh, ZNF148 / RFU, TAF9 / Fold change vs veh, TAF9 / RFU, SLC1A5 / Fold change vs veh, SLC1A5 / RFU, SLMO2 / Fold change vs veh, SLMO2 / RFU, ABCC4 / Fold change vs veh, ABCC4 / RFU, LOC101060439 /// RAP1B / Fold change vs veh, LOC101060439 /// RAP1B / RFU, RFX7 / Fold change vs veh, RFX7 / RFU, GTPBP10 / Fold change vs veh, GTPBP10 / RFU, CNEP1R1 / Fold change vs veh, CNEP1R1 / RFU, BIVM-ERCC5 /// ERCC5 / Fold change vs veh, BIVM-ERCC5 /// ERCC5 / RFU, ILF3 / Fold change vs veh, ILF3 / RFU 11762660_at / Fold change /veh 11762660_at / RFU VCAN (11757783_s_at) / Fold change /veh VCAN (11757783_s_at) / RFU DDX43 (11728927_at) / Fold change /veh DDX43 (11728927_at) / RFU KRT8 (11758188_x_at) / Fold change /veh KRT8 (11758188_x_at) / RFU NKD1 (11759106_at) / Fold change /veh NKD1 (11759106_at) / RFU SRD5A1 (11742802_a_at) / Fold change /veh SRD5A1 (11742802_a_at) / RFU TPSAB1 /// TPSB2 (11721975_s_at) / Fold change /veh TPSAB1 /// TPSB2 (11721975_s_at) / RFU GSTM3 (11746129_a_at) / Fold change /veh GSTM3 (11746129_a_at) / RFU IL23R (11737362_x_at) / Fold change /veh IL23R (11737362_x_at) / RFU TMEM51 (11727254_a_at) / Fold change /veh TMEM51 (11727254_a_at) / RFU PIWIL2 (11732686_x_at) / Fold change /veh PIWIL2 (11732686_x_at) / RFU ORM1 (11744905_x_at) / Fold change /veh ORM1 (11744905_x_at) / RFU CCDC152 (11743942_at) / Fold change /veh CCDC152 (11743942_at) / RFU ECM1 (11717891_a_at) / Fold change /veh ECM1 (11717891_a_at) / RFU IL23R (11748794_a_at) / Fold change /veh IL23R (11748794_a_at) / RFU TNFAIP8L3 (11732012_x_at) / Fold change /veh TNFAIP8L3 (11732012_x_at) / RFU MBOAT4 (11741988_at) / Fold change /veh MBOAT4 (11741988_at) / RFU 11764193_at / Fold change /veh 11764193_at / RFU TMEM53 (11763286_at) / Fold change /veh TMEM53 (11763286_at) / RFU MAGEB2 (11727129_at) / Fold change /veh MAGEB2 (11727129_at) / RFU TMEM200A (11744735_a_at) / Fold change /veh TMEM200A (11744735_a_at) / RFU CCDC152 (11751479_a_at) / Fold change /veh CCDC152 (11751479_a_at) / RFU FAM211A (11726209_a_at) / Fold change /veh FAM211A (11726209_a_at) / RFU RGS16 (11746705_a_at) / Fold change /veh RGS16 (11746705_a_at) / RFU VCAN (11755009_s_at) / Fold change /veh VCAN (11755009_s_at) / RFU RHOB (11743442_s_at) / Fold change /veh RHOB (11743442_s_at) / RFU RGS16 (11720943_a_at) / Fold change /veh RGS16 (11720943_a_at) / RFU RGS16 (11720944_at) / Fold change /veh RGS16 (11720944_at) / RFU, VPS4B / Fold change vs veh, VPS4B / RFU, CREB1 / Fold change vs veh, CREB1 / RFU, DNAJC13 / Fold change vs veh, DNAJC13 / RFU, GNAQ / Fold change vs veh, GNAQ / RFU, CDK5R1 / Fold change vs veh, CDK5R1 / RFU, ZRANB3 / Fold change vs veh, ZRANB3 / RFU, CUL4A / Fold change vs veh, CUL4A / RFU, CCNY / Fold change vs veh, CCNY / RFU, UFL1 / Fold change vs veh, UFL1 / RFU, COG3 / Fold change vs veh, COG3 / RFU, DIAPH2 / Fold change vs veh, DIAPH2 / RFU, SKA2 / Fold change vs veh, SKA2 / RFU, AFF3 / Fold change vs veh, AFF3 / RFU, LMF1 / Fold change vs veh, LMF1 / RFU, IPO11 / Fold change vs veh, IPO11 / RFU, DFFB / Fold change vs veh, DFFB / RFU, FOXP1 / Fold change vs veh, FOXP1 / RFU, CARD8 / Fold change vs veh, CARD8 / RFU, STRN3 / Fold change vs veh, STRN3 / RFU, ADK / Fold change vs veh, ADK / RFU, RASSF2 / Fold change vs veh, RASSF2 / RFU, WIPF1 / Fold change vs veh, WIPF1 / RFU, LARP1B / Fold change vs veh, LARP1B / RFU, RASA1 / Fold change vs veh, RASA1 / RFU, RB1 / Fold change vs veh, RB1 / RFU, PPFIA1 / Fold change vs veh, PPFIA1 / RFU, MAT2A / Fold change vs veh, MAT2A / RFU, CCT5 / Fold change vs veh, CCT5 / RFU, WDR92 / Fold change vs veh, WDR92 / RFU, CUX1 / Fold change vs veh, CUX1 / RFU, TTC7A / Fold change vs veh, TTC7A / RFU, TMEM135 / Fold change vs veh, TMEM135 / RFU, DEPTOR / Fold change vs veh, DEPTOR / RFU, CPM / Fold change vs veh, CPM / RFU, DNAJB6 / Fold change vs veh, DNAJB6 / RFU, CACNA2D3 / Fold change vs veh, CACNA2D3 / RFU, DTX4 / Fold change vs veh, DTX4 / RFU, TFCP2 / Fold change vs veh, TFCP2 / RFU, GMCL1 /// GMCL1P1 / Fold change vs veh, GMCL1 /// GMCL1P1 / RFU, AEBP2 / Fold change vs veh, AEBP2 / RFU, SNHG1 /// SNORD22 /// SNORD25 /// SNORD26 /// SNORD27 /// SNORD28 /// SNORD29 /// SNORD31 / Fold change vs veh, SNHG1 /// SNORD22 /// SNORD25 /// SNORD26 /// SNORD27 /// SNORD28 /// SNORD29 /// SNORD31 / Fold change (Aza/veh), C12orf56 (ProbeSet 11735607_a_at) / Fold change (ACY-1035/veh), C12orf56 (ProbeSet 11735607_a_at) / Fold change (Aza/veh), FGFR1OP (ProbeSet 11751329_s_at) / Fold change (ACY-1035/veh), FGFR1OP (ProbeSet 11751329_s_at) / Fold change (Aza/veh), VPS36 (ProbeSet 11739960_a_at) / Fold change (ACY-1035/veh), VPS36 (ProbeSet 11739960_a_at) / RFU SYPL1 (11715823_x_at) / Fold change /veh SYPL1 (11715823_x_at) / RFU IGFBP7 (11715501_s_at) / Fold change /veh IGFBP7 (11715501_s_at) / RFU REEP3 (11722064_at) / Fold change /veh REEP3 (11722064_at) / RFU IGLL1 (11728026_x_at) / Fold change /veh IGLL1 (11728026_x_at): dose or concentration left out as unconfirmed
Details: ProbeSet 11753616_s_at; LIST B

## Nc1ccc(-c2cccs2)cc1NC(=O)c1ccc2c(c1)cc(C1CC1)n2CCN1CCOCC1 [ACY-1035]
  RFU, ARL8B: 236.78 RFU
